Laboratory results: ChEMBL document CHEMBL4152249, “Alkoxyphenylthiazoles with broad-spectrum activity against multidrug-resistant gram-positive bacterial pathogens” (Eur J Med Chem, 2018)
≈ marks a conversion by molar mass, not a printed value.

Key:
[1] = test system: Staphylococcus aureus; experiment: Antibacterial activity against methicillin-resistant Staphylococcus aureus 2658 RCMB after 20 hrs by broth microdilution assay; assay type: functional
[2] = test system: Listeria monocytogenes; experiment: Bactericidal activity against Listeria monocytogenes ATCC 19111 incubated for 20 hrs followed by re-plating on tryptic soy agar plates at 37 degC for 18 hrs by broth microdilution assay; assay type: functional
[3] = test system: Staphylococcus aureus; experiment: Bactericidal activity against Staphylococcus aureus USA300 NRS384 incubated for 20 hrs followed by re-plating on tryptic soy agar plates at 37 degC for 18 hrs by broth microdilution assay; assay type: functional
[4] = test system: Caco-2; experiment: Cytotoxicity against human Caco2 cells assessed as effect on cell viability up to 64 ug/ml after 2 hrs by MTS assay; assay type: cell-based; conditions: caco-2, 2 h
[5] = test system: Enterococcus faecalis; experiment: Bactericidal activity against vancomycin-resistant Enterococcus faecalis ATCC 51299 incubated for 20 hrs followed by re-plating on tryptic soy agar plates at 37 degC for 18 hrs by broth microdilution assay; assay type: functional
[6] = test system: Streptococcus pneumoniae; experiment: Antibacterial activity against methicillin-resistant Streptococcus pneumoniae ATCC 700677 after 20 hrs by broth microdilution assay; assay type: functional; conditions: ATCC 700677, 20 h
[7] = test system: Streptococcus pneumoniae; experiment: Bactericidal activity against cephalosporin-resistant Streptococcus pneumoniae ATCC 51916 incubated for 20 hrs followed by re-plating on tryptic soy agar plates at 37 degC for 18 hrs by broth microdilution assay; assay type: functional
[8] = test system: Staphylococcus aureus; experiment: Antibacterial activity against Staphylococcus aureus after 20 hrs by broth microdilution assay; assay type: functional
[9] = test system: Staphylococcus aureus; experiment: Antibacterial activity against vancomycin-resistant Staphylococcus aureus VRSA10 after 20 hrs by broth microdilution assay; assay type: functional; conditions: VRSA10, 20 h
[10] = test system: Listeria monocytogenes; experiment: Antibacterial activity against Listeria monocytogenes ATCC 19111 after 20 hrs by broth microdilution assay; assay type: functional; conditions: ATCC 19111, 20 h
[11] = test system: Staphylococcus aureus; experiment: Antibacterial activity against methicillin-resistant Staphylococcus aureus NRS385 after 20 hrs by broth microdilution assay; assay type: functional; conditions: NRS385, 20 h
[12] = test system: Staphylococcus aureus; experiment: Bactericidal activity against linezolid-resistant Staphylococcus aureus NRS119 incubated for 20 hrs followed by re-plating on tryptic soy agar plates at 37 degC for 18 hrs by broth microdilution assay; assay type: functional
[13] = test system: Staphylococcus aureus; experiment: Bactericidal activity against methicillin-resistant Staphylococcus aureus NRS386 incubated for 20 hrs followed by re-plating on tryptic soy agar plates at 37 degC for 18 hrs by broth microdilution assay; assay type: functional
[14] = test system: Enterococcus faecium; experiment: Antibacterial activity against vancomycin-resistant Enterococcus faecium ATCC 700221 after 20 hrs by broth microdilution assay; assay type: functional; conditions: ATCC 700221, 20 h
[15] = test system: Staphylococcus aureus; experiment: Bactericidal activity against vancomycin-resistant Staphylococcus aureus VRSA12 incubated for 20 hrs followed by re-plating on tryptic soy agar plates at 37 degC for 18 hrs by broth microdilution assay; assay type: functional
[16] = test system: Streptococcus pneumoniae; experiment: Bactericidal activity against methicillin-resistant Streptococcus pneumoniae ATCC 700677 incubated for 20 hrs followed by re-plating on tryptic soy agar plates at 37 degC for 18 hrs by broth microdilution assay; assay type: functional
[17] = test system: Staphylococcus aureus; experiment: Bactericidal activity against vancomycin-resistant Staphylococcus aureus VRSA10 incubated for 20 hrs followed by re-plating on tryptic soy agar plates at 37 degC for 18 hrs by broth microdilution assay; assay type: functional
[18] = test system: Streptococcus pneumoniae; experiment: Antibacterial activity against cephalosporin-resistant Streptococcus pneumoniae ATCC 51916 after 20 hrs by broth microdilution assay; assay type: functional; conditions: ATCC 51916, 20 h
[19] = test system: Staphylococcus aureus; experiment: Antibacterial activity against methicillin-resistant Staphylococcus aureus NRS386 after 20 hrs by broth microdilution assay; assay type: functional; conditions: NRS386, 20 h
[20] = test system: Enterococcus faecalis; experiment: Antibacterial activity against vancomycin-resistant Enterococcus faecalis ATCC 51299 after 20 hrs by broth microdilution assay; assay type: functional; conditions: ATCC 51299, 20 h
[21] = test system: Staphylococcus aureus; experiment: Bactericidal activity against methicillin-sensitive Staphylococcus aureus NRS107 incubated for 20 hrs followed by re-plating on tryptic soy agar plates at 37 degC for 18 hrs by broth microdilution assay; assay type: functional
[22] = test system: Enterococcus faecium; experiment: Bactericidal activity against vancomycin-resistant Enterococcus faecium ATCC 700221 incubated for 20 hrs followed by re-plating on tryptic soy agar plates at 37 degC for 18 hrs by broth microdilution assay; assay type: functional
[23] = test system: Staphylococcus aureus; experiment: Bactericidal activity against methicillin-resistant Staphylococcus aureus NRS385 incubated for 20 hrs followed by re-plating on tryptic soy agar plates at 37 degC for 18 hrs by broth microdilution assay; assay type: functional
[24] = test system: Staphylococcus epidermidis; experiment: Antibacterial activity against methicillin-resistant Staphylococcus epidermidis NRS101 after 20 hrs by broth microdilution assay; assay type: functional; conditions: NRS101, 20 h
[25] = test system: Staphylococcus aureus; experiment: Antibacterial activity against vancomycin-resistant Staphylococcus aureus VRSA12 after 20 hrs by broth microdilution assay; assay type: functional; conditions: VRSA12, 20 h
[26] = test system: Staphylococcus aureus; experiment: Antibacterial activity against methicillin-resistant Staphylococcus aureus after 20 hrs by broth microdilution assay; assay type: functional
[27] = test system: Staphylococcus aureus; experiment: Bactericidal activity against Staphylococcus aureus USA400 NRS123 incubated for 20 hrs followed by re-plating on tryptic soy agar plates at 37 degC for 18 hrs by broth microdilution assay; assay type: functional
[28] = test system: Staphylococcus epidermidis; experiment: Bactericidal activity against methicillin-resistant Staphylococcus epidermidis NRS101 incubated for 20 hrs followed by re-plating on tryptic soy agar plates at 37 degC for 18 hrs by broth microdilution assay; assay type: functional

CCCCCCCOc1ccc(-c2nc(C)c(-c3ccnc(NN4CCOCC4)n3)s2)cc1
MIC [1]: 25 µg/mL (≈ 53.5 µM)

CCCCCCCCOc1ccc(-c2nc(C)c(-c3ccnc(NC(=N)N)n3)s2)cc1
MIC [1]: 1.56 µg/mL (≈ 3.56 µM)

CCCCCCCCOc1ccc(-c2nc(C)c(-c3ccnc(NC(=N)N4CCN(C)CC4)n3)s2)cc1
MBC [2]: 8 µg/mL (≈ 15.3 µM)
MBC [3]: 16 µg/mL (≈ 30.7 µM)
Activity [4]: Non-Toxic
MBC [5]: 64 µg/mL (≈ 123 µM)
MIC [6]: 16 µg/mL (≈ 30.7 µM)
MBC [7]: 32 µg/mL (≈ 61.3 µM)
MIC [8]: 16 µg/mL (≈ 30.7 µM)
MIC [9]: 8 µg/mL (≈ 15.3 µM)
MIC [10]: 4 µg/mL (≈ 7.67 µM)
MIC [11]: 16 µg/mL (≈ 30.7 µM)
MBC [12]: 32 µg/mL (≈ 61.3 µM)
MBC [13]: 16 µg/mL (≈ 30.7 µM)
MIC [1]: 0.78 µg/mL (≈ 1.5 µM)
MIC [14]: 16 µg/mL (≈ 30.7 µM)
MBC [15]: 16 µg/mL (≈ 30.7 µM)
MBC [16]: 32 µg/mL (≈ 61.3 µM)
MBC [17]: 8 µg/mL (≈ 15.3 µM)
MIC [18]: 32 µg/mL (≈ 61.3 µM)
MIC [19]: 16 µg/mL (≈ 30.7 µM)
MIC [20]: 16 µg/mL (≈ 30.7 µM)
MBC [21]: > 64 µg/mL
MBC [22]: 16 µg/mL (≈ 30.7 µM)
MBC [23]: 16 µg/mL (≈ 30.7 µM)
MIC [24]: 8 µg/mL (≈ 15.3 µM)
MIC [25]: 16 µg/mL (≈ 30.7 µM)
MIC [26]: 16 to 32 µg/mL (≈ 30.7 to 61.3 µM)
MBC [27]: 32 µg/mL (≈ 61.3 µM)
MBC [28]: 8 µg/mL (≈ 15.3 µM)

CCCCCCCOc1ccc(-c2nc(C)c(-c3ccnc(NC(=N)N)n3)s2)cc1
MIC [1]: 1.56 µg/mL (≈ 3.67 µM)

CCCCCCCCOc1ccc(-c2nc(C)c(-c3ccnc(NC(=N)N(C)C)n3)s2)cc1
MBC [2]: 8 µg/mL (≈ 17.1 µM)
MBC [3]: 16 µg/mL (≈ 34.3 µM)
Activity [4]: Non-Toxic
MBC [5]: 32 µg/mL (≈ 68.6 µM)
MIC [6]: 16 µg/mL (≈ 34.3 µM)
MBC [7]: 16 µg/mL (≈ 34.3 µM)
MIC [8]: 8 µg/mL (≈ 17.1 µM)
MIC [9]: 16 µg/mL (≈ 34.3 µM)
MIC [10]: 4 µg/mL (≈ 8.57 µM)
MIC [11]: 16 µg/mL (≈ 34.3 µM)
MBC [12]: 16 µg/mL (≈ 34.3 µM)
MBC [13]: 16 µg/mL (≈ 34.3 µM)
MIC [1]: 1.56 µg/mL (≈ 3.34 µM)
MIC [14]: 8 µg/mL (≈ 17.1 µM)
MBC [15]: 16 µg/mL (≈ 34.3 µM)
MBC [16]: 32 µg/mL (≈ 68.6 µM)
MBC [17]: 16 µg/mL (≈ 34.3 µM)
MIC [18]: 16 µg/mL (≈ 34.3 µM)
MIC [19]: 16 µg/mL (≈ 34.3 µM)
MIC [20]: 32 µg/mL (≈ 68.6 µM)
MBC [21]: 8 µg/mL (≈ 17.1 µM)
MBC [22]: 8 µg/mL (≈ 17.1 µM)
MBC [23]: 16 µg/mL (≈ 34.3 µM)
MIC [24]: 4 µg/mL (≈ 8.57 µM)
MIC [25]: 16 µg/mL (≈ 34.3 µM)
MIC [26]: 8 to 16 µg/mL (≈ 17.1 to 34.3 µM)
MBC [27]: 16 µg/mL (≈ 34.3 µM)
MBC [28]: 8 µg/mL (≈ 17.1 µM)
